In test [1] the test system is LoVo cells. In words: Invasion assay, Matrigel-coated Boyden chambers, LoVo. The test is classed as cell-based, human. To be noted: 6 µM, 24 h, corrected for adherent cells.
The subject of test [2] is HT-29. In words: MTT viability assay, HT-29. The test is classed as cell-based, human. To be noted: TP53 mutant, mean of six replicates of one experiment, read-out: IC50 Cancer Cell Lines (C) HT-29. The method, then: (§1) HCT-116 (CCL-247), LoVo (CCL-229), DLD-1 (CCL-221), HT-29 (HTB-38) and CoN (CCD-841) human CRC cells were obtained from the ATCC (Manassas, VA, USA). HCT-116 cells were cultured in Dulbecco’s Modified Eagle’s Medium (DMEM; Corning Cellgro, Corning, NY, USA) for the invasion assays or RPMI-1640 medium (Lonza, Westburg, The Netherlands) for all other assays. The LoVo, DLD-1, and HT-29 cell lines were grown in RPMI-1640 for all experiments. Media were supplemented with 10% fetal bovine serum (FBS; Gibco, Waltham, MA, USA or Greiner Bio-One, Vilvoorde, Belgium), 100 U/mL penicillin, and 100 µg/mL streptomycin (Gibco, Waltham, MA). Cells were grown at 37 °C and 5% CO2 in a humidified atmosphere. The CoN cells were cultured in Eagle’s Minimum Essential Medium (Lonza, Westburg, The Netherlands) supplemented with 10% FBS (South America origin, Greiner Bio-One, Vilvoorde, Belgium). HCT-116 p53^-/- cells were obtained from Denis L.J. LaFontaine, Université Libre de Bruxelles, Brussels, Belgium.
(§2) Effects of compounds on viability were assessed by means of 3-(4,5-dimethylthiazol-2-yl)-2,5-diphenyltetrazolium bromide (MTT; Sigma-Aldrich, Diegem, Belgium) colorimetric assay as previously reported. Briefly, cells were seeded in flat-bottom 96-well plates at the appropriate cell density 24 h prior to the exposure or not to the compound of interest. Each compound was first solubilized in dimethylsulfoxide (DMSO) at 10^−2 M concentration and further diluted in a serial manner in the culture medium. Nine concentrations ranging from 10 nM to 100 µM were tested in sextuplicate within the assay. Evaluation of the cell viability was conducted after 72 h of exposure to the compound by means of MTT assay.
Background: Formazan colour is commonly taken as a measure of viable cells.

The subject of test [3] is HCT-116 cells. In words: Invasion assay, Matrigel-coated Boyden chambers, HCT-116. In kind it is cell-based, human. The settings on record: 1.5 µM, not dose-dependent. The method, then: Prior to seeding HCT-116 cells in the invasion chambers, the medium was removed and cells were washed twice with phosphate buffered saline and incubated in DMEM lacking FBS for 48 h before seeding at a density of 1 × 10^5 cells/well into the upper portion of Matrigel-coated invasion chambers (Corning Biocoat, Corning, NY, USA), as described previously by our group in [47, 48]. The upper portion of each chamber contained cells suspended in serum-free DMEM containing DMSO vehicle alone or increasing concentrations of the Amaryllidaceae alkaloids NAR, LYC, and HAE. […] The lower portion of each chamber contained DMEM supplemented with 10% FBS. The FBS served as a chemoattractant. A polyethylene terephthalate (PET) membrane, containing 8 μm pores and coated with Matrigel basement membrane matrix, separated the upper and lower portions of the invasion chamber. After 24 h, chambers were removed and the cells that had not invaded were removed from within the chamber using a cotton swab. The cells that had invaded through and adhered to the bottom of the PET membrane separating the chambers were fixed with methanol and stained with 0.5% crystal violet (Sigma-Aldrich, St. Louis, MO, USA). Five random images were taken of the bottom of each membrane using a Cytation 5 Cell Imaging Multi-Mode Reader (Winooski, VT, USA). The cells in each image were counted using Image J (NIH, Bethesda, MD, USA).
To correct for the inhibitory effects of the Amaryllidaceae alkaloids on cell proliferation, cells from the same biological repeat were seeded in parallel in 24-well tissue culture plates at a density of 1 × 10^5 cells/well in DMEM containing 5% FBS (the average of the FBS concentrations in the upper and lower chambers) and supplemented with vehicle or increasing concentrations of the alkaloids. These wells were not coated with Matrigel. The medium was removed, and the adherent cells were trypsinized and counted 24 h after treatment using a hemocytometer. To compare cell invasion across treatments, cell invasion was corrected for adherent cell proliferation and expressed as % vehicle control.

Test [4] concerns DLD-1. In words: MTT viability assay, DLD-1. In kind it is cell-based, human. The settings on record: TP53 mutant, mean of six replicates of one experiment, read-out: IC50 Cancer Cell Lines (C) DLD-1. As to the method: as §1, §2
The subject of test [5] is VEGF. In words: Luminex assay of VEGF in HCT-116 and LoVo cell supernatants. The test is classed as cell-based, human. The settings on record: 6 µM; 24 h; both cell lines. The text has this:
(§3) We ordered a customized Luminex® assay to quantify 15 targets at once from Biotechne (reference LXSAHM-15; R&D Systems, Abingdon, U.K.). The 15 targets were chosen on the basis of the literature as follows: the relevant metalloproteinases MMP-1, -2, -7, -9, -13 [49] and the cytokines associated with dismal prognosis or shorter disease-free survival period: C-C motif chemokine ligand (CCL) -4, CCL-22, Flt-3 ligand, IL-1β, IL-2, IL-6, IL-8, interferon gamma (IFNγ), vascular endothelial growth factor (VEGF), and pentraxin-3 [50]. Samples were prepared as follows: HCT-116 or LoVo cells were seeded in 6-well plates and allowed to adhere and grow until they reached 70% confluency. The culture medium was replaced by 1.5 mL of culture medium containing only 0.5% of FBS with or without the compounds to be tested (NAR at 80 nM, LYC at 6 µM, and HAE at 6 µM). After 24 h of treatment, supernatants were collected, aliquoted, and kept frozen at −80 °C. Three independent series of samples were prepared. […] We thus decided to concentrate several aliquots of our supernatant samples by centrifugation of 500 µL of supernatant with Amicon Ultra 0.5 mL filters characterized by a 3 kDa cut-off (UFC500324; Millipore, Merck, Hoeilaart, Belgium) leading to a final volume of 150 µL (3.3 times concentrated). The Luminex® assay was conducted according to manufacturer’s recommendations. […]

Test [6] concerns IL-8. In words: Luminex assay of IL-8 in HCT-116 and LoVo cell supernatants. The settings on record: LYC 6 µM; 24 h; both cellular models. In kind it is cell-based, human.
Text: as §3

Test [7] deals with MMP-1, -2, -7, -9, -13. In words: Luminex assay of MMP secretion in HCT-116 and LoVo cell supernatants. In kind it is cell-based, human. The settings on record: 6 µM; 24 h; both cell lines (HCT-116, LoVo). The text has this:
We ordered a customized Luminex® assay to quantify 15 targets at once from Biotechne (reference LXSAHM-15; R&D Systems, Abingdon, U.K.). The 15 targets were chosen on the basis of the literature as follows: the relevant metalloproteinases MMP-1, -2, -7, -9, -13 [49] and the cytokines associated with dismal prognosis or shorter disease-free survival period: C-C motif chemokine ligand (CCL) -4, CCL-22, Flt-3 ligand, IL-1β, IL-2, IL-6, IL-8, interferon gamma (IFNγ), vascular endothelial growth factor (VEGF), and pentraxin-3 [50]. Samples were prepared as follows: HCT-116 or LoVo cells were seeded in 6-well plates and allowed to adhere and grow until they reached 70% confluency. The culture medium was replaced by 1.5 mL of culture medium containing only 0.5% of FBS with or without the compounds to be tested (NAR at 80 nM, LYC at 6 µM, and HAE at 6 µM). After 24 h of treatment, supernatants were collected, aliquoted, and kept frozen at −80 °C. Three independent series of samples were prepared. […] We thus decided to concentrate several aliquots of our supernatant samples by centrifugation of 500 µL of supernatant with Amicon Ultra 0.5 mL filters characterized by a 3 kDa cut-off (UFC500324; Millipore, Merck, Hoeilaart, Belgium) leading to a final volume of 150 µL (3.3 times concentrated). The Luminex® assay was conducted according to manufacturer’s recommendations. Data were collected on a Bioplex-200 (Bio-Rad, Temse, Belgium).

The subject of test [8] is HCT-116^+/+. In words: MTT viability assay, HCT-116+/+. In kind it is cell-based, human. The settings on record: functional p53, mean of six replicates of one experiment, read-out: IC50 Cancer Cell Lines (C) HCT-116+/+. As to the method:
as §1, §2

Test [9] relates to subpanel of CRC cell lines. To be noted: NCI DTD 60 cell line screen; cited from earlier work.
Test [10] deals with CoN. In words: MTT viability assay, CoN normal colon epithelial cell line. The test is classed as cell-based, human. The settings on record: 72 h of exposure, mean of six replicates of one experiment, read-out: IC50 Normal Cell Line (N) CoN. As to the method: as §1, §2
The test system of test [11] is Cancer Cell Lines (LoVo, HCT-116^+/+, HCT-116^-/-, HT-29, DLD-1). In words: MTT viability assay, mean over the five colon cancer cell lines and ratio to CoN. In kind it is cell-based, human. The settings on record: for Ratio N/C: IC50 CoN / mean IC50 cancer cells. As to the method:
as §1, §2

Test [12] relates to HCT-116^-/-. In words: MTT viability assay, HCT-116-/- (p53-null). The settings on record: mean of six replicates of one experiment, read-out: IC50 Cancer Cell Lines (C) HCT-116-/-. The test is classed as cell-based, human. As to the method: as §1, §2
For test [13], the system named is LoVo. In words: MTT viability assay, LoVo. The test is classed as cell-based, human. To be noted: 72 h of exposure, TP53 wild type, mean of six replicates of one experiment, read-out: IC50 Cancer Cell Lines (C) LoVo. The method, then: as §1, §2
The subject of test [14] is HT-29 p53-deficient and HCT-116 p53 wild-type models. Details: method as in PMID 21220492. To be noted: cited from earlier work.
[15] abbreviates: Homo sapiens, HT-29, 72 h of exposure.
Where [16] appears, read: Homo sapiens, DLD-1, 72 h of exposure.
[17] abbreviates: Homo sapiens, HCT-116, 72 h of exposure.
Setting [18] is: Homo sapiens, after 72 h of exposure, regardless of TP53 status, read-out: IC50s against all cancer cell lines.
Where [19] appears, read: Homo sapiens, mean over five cancer cell lines, MTT, 72 h, read-out: Mean IC50 Cancer Cells.

Data on four compounds can be found in article PMC9496155, “Amaryllidaceae Alkaloids Decrease the Proliferation, Invasion, and Secretion of Clinically Relevant Cytokines by Cultured Human Colon Cancer Cells” (Biomolecules, 2022).

What is called GI50 is the concentration at which growth is held to half of that of the control.

SMILES strings stand for the structures. Like-named read-outs stand apart in the source and are kept apart here. Where only a bound is given, the exact number is not on record here.

With `O[C@H]1[C@H]2c3cc4c(cc3CN3CCC(=C[C@@H]1O)[C@H]23)OCO4` [LYC, lycorine], the residual invasion rate in test [1] amounted to 37.4 ± 7.8%. For the same compound, the IC50 in test [2] (setting [15]) was 3900 nM; in [4] (setting [16]), 2900 nM; in test [8] (setting [17]) it was 1300 nM; in test [10] (Homo sapiens, Epithelial cell) it was 79000 nM; in test [11] (setting [18]), approximately 3000 nM; in test [11] (setting [19]), 3200 nM. Moreover, the IC50 in [12] (setting [17]) is 2600 nM; in [13] (Homo sapiens, LoVo) it was 5500 nM. In test [3], the “invasion of HCT-116 cells” value is “reduced”. Besides, in test [5], the “VEGF levels, times decreased” value is recorded as not above 10 times. Besides, the IL-8 secretion result in test [6] is “reduced”. For the same compound, the “secretion of MMP-1, -2, and -7” value in test [7] was “markedly decrease”. Besides, the GI50 in [9] is 1990 nM. In addition, the “Ratio N/C” value in test [11] was determined as 24.

On to `CO[C@@H]1C=C[C@@]23c4cc5c(cc4CN(C[C@@H]2O)[C@H]3C1)OCO5` [HAE, haemanthamine], for which the IC50 in test [2] (setting [15]) is 2500 nM; in test [4] (setting [16]), 2400 nM; in test [8] (setting [17]) it was 1900 nM; in test [10] (Homo sapiens, Epithelial cell) it was 85000 nM; in test [11] (setting [18]), approximately 3000 nM; in test [11] (setting [19]), 2700 nM. The IC50 was 2200 nM in test [12] (setting [17]) and 4600 nM in test [13] (Homo sapiens, LoVo). Further, the “secretion of MMP-1, -2, and -7” value in test [7] is on record as “markedly decrease”. In addition, in test [9], the GI50 is 15800 nM. The “Ratio N/C” value in test [11] amounted to 31.

As for `O=C1N[C@H]2[C@H](O)[C@H](O)[C@@H](O)[C@H](O)[C@@H]2c2cc3c(c(O)c21)OCO3` [PANC, pancratistatin], the IC50 in [2] (setting [15]) was found to be 300 nM; in test [4] (setting [16]), 280 nM; in [8] (setting [17]), 170 nM; in [10] (Homo sapiens, Epithelial cell), 2400 nM; in test [11] (setting [19]) it was 300 nM; in test [12] (setting [17]), 160 nM. Besides, the IC50 in test [13] (Homo sapiens, LoVo) is 590 nM; in test [14], 100 nM. The GI50 in test [9] was 263 nM. The “Ratio N/C” value in test [11] came out at 8.

Turning to `N.N.[Cl][Pt][Cl]` [Cisplatin, cisplatin, reference compound], the IC50 in [2] (72 h of exposure) stood at 22100 nM; in test [4] (72 h of exposure), 14800 nM; in [8] (72 h of exposure), 4500 nM; in [10], 67000 nM; in test [11] (mean over five cancer cell lines, MTT, 72 h, read-out: Mean IC50 Cancer Cells), 13500 nM; in [12] (72 h of exposure), 17500 nM. Also, the IC50 in test [13] is 8400 nM. Moreover, the “Ratio N/C” value in test [11] is 5. Moreover, the “times less toxic toward non-cancerous cells” value in [11] (mean IC50s of cancer cell lines vs CoN cell line) was found to be 5 times.
